Earlier results in patent US20010041964A1, “PHARMACOKINETIC-BASED DRUG DESIGN TOOL AND METHOD” (priority 1998, published 2001).

How the values were obtained:
[1] = system: rabbit intestinal tissue (duodenum, jejunum, ileum, colon); settings: donor concentration per compound; for Pe (cm/s) Colon: rabbit colon; for Pe (cm/s) Duodenum: rabbit duodenum; for Pe (cm/s) Ileum: rabbit ileum; for Pe (cm/s) Jejunum: rabbit jejunum
intestinal transport = settings: permeability standard
[2] = oral, human
[3] = not given; remark: listed apart in the source
[4] = not given; remark: listed apart in the source

SMILES: O=C[C@H](O)[C@@H](O)[C@H](O)[C@H](O)CO [D-glucose]
- Pe (cm/s) Colon [1]: 9.28e-06 cm/s
- Pe (cm/s) Duodenum [1]: 4.55e-06 cm/s
- Pe (cm/s) Ileum [1]: 1.45e-05 cm/s
- Pe (cm/s) Jejunum [1]: 1.02e-05 cm/s
- Transport mechanism (intestinal transport): Carrier-mediated Influx

SMILES: OC[C@@H](O)[C@@H](O)[C@H](O)[C@H](O)CO [mannitol]
- Pe (cm/s) Colon [1]: 5.53e-06 cm/s
- Pe (cm/s) Duodenum [1]: 1.73e-06 cm/s
- Pe (cm/s) Ileum [1]: 4.02e-06 cm/s
- Pe (cm/s) Jejunum [1]: 3.54e-06 cm/s
- Transport mechanism (intestinal transport): Passive Paracellular
- Bioavailability in humans when orally administered [2]: approximately 10%

SMILES: Nc1nc2c(ncn2COC(CO)CO)c(=O)[nH]1.[Na] [Gancyclovir, 9-(1,3-dihydroxy-2-propoxymethyl)guanine, monosodium salt]
- Bioavailability of fasted patients in clinical trials (fasted patients, Phase I studies): 3-20%
- Cmax (mcg/ml), Clinical 1505a (human clinical study 1505a): 0.55 µg/mL
- Tmax (hrs), Clinical 1505a (human clinical study 1505a): 1.43 h
- Cmax (mcg/ml), Clinical 1505b (human clinical study 1505b): 0.59 µg/mL
- Tmax (hrs), Clinical 1505b (human clinical study 1505b): 1.43 h
- In vivo biotransformation [3]: no in vivo biotransformation
- Absorption ([3]; in vivo): poorly absorbed
- k12 ([4]; Appendix 2, mass-volume model): k12 = .839
- k21 ([4]; Appendix 2, mass-volume model): k21 = .67
- k_elim ([4]; Appendix 2, mass-volume model): k_elim = .161
- Plasma Kinetics Fluid Volume ([4]; Table 11): 76,800 ml
- Plasma Kinetics k12 ([4]; Table 11): 0.839
- Plasma Kinetics k21 ([4]; Table 11): 0.670
- Plasma Kinetics kelim ([4]; Table 11): 0.161

SMILES: C[C@]12CCC(=O)C=C1CC[C@@H]1[C@@H]2[C@@H](O)C[C@@]2(C)[C@H]1CC[C@]2(O)C(=O)CO [hydrocortisone]
- Pe (cm/s) Colon [1]: 3.85e-06 cm/s
- Pe (cm/s) Duodenum [1]: 3e-07 cm/s
- Pe (cm/s) Ileum [1]: 2.91e-06 cm/s
- Pe (cm/s) Jejunum [1]: 1.31e-06 cm/s
